Laboratory results: patent US20260177565A1, “INHIBITOR FOR GLUCOSE UPTAKE INTO RED BLOOD CELLS, SUPPRESSANT FOR GLUCOSE CONCENTRATION REDUCTION IN BLOOD-COLLECTING TUBE, AND BLOOD-COLLECTING TUBE INCLUDING SAME” (THE UNIVERSITY OF TOKYO, priority 2022, published 2026)
Entries after “also recorded” stand apart in the source; their conditions may differ.

System: red blood cells
Test: Fluorescently labeled glucose uptake into red blood cells (Glucose Uptake Assay Kit-Green)
Assay type: cell-based, human
Settings: for uptake of fluorescently labeled glucose / fluorescence in red blood cells (in words): concentrations as in Table 5; for Fluorescence intensity of fluorescently labeled glucose uptake into red blood cells: control (PBS(−)) 613.5
Experimental: Blood collected in the blood collection tube B from a volunteer subject was centrifuged at 3000 rpm for 5 minutes within 10 minutes, and plasma was discarded to obtain fresh red blood cells. The red blood cells were washed with PBS(−) and used for the following tests (washed red blood cells).
The test substance was dissolved in the amount described in Table 5 with respect to 1 mL of PBS(−). On the other hand, 5 μL of washed red blood cells immersed in PBS(−) and allowed to stand for about 15 minutes were taken out into a test tube, 150 μL each of a test substance solution was added thereto, and this was heated at 37° C. for 15 minutes. Then, 2 μL of a dissolved probe reagent in a glucose uptake assay kit (Glucose Uptake Assay Kit-Green, Dojindo Laboratories Co., Ltd.) was added and heated at 37° C. for 45 minutes. The probe reagent was fluorescently labeled glucose (fluorescently labeled glucose), and a powdered reagent dissolved in 20 μL of DMSO was used.
After the immersion in the reagents of the glucose uptake assay was completed, red blood cells were washed 3 times with 150 μL of a cooled 50-fold diluted WI solution (prepared by diluting the solution provided with the assay reagent 50-fold with PBS(−) at 4° C.), and 150 μL of a cooled 50-fold diluted WI solution was further added and stirred, and then 20 μL of the solution was dropped onto a glass slide and spread over the slide. Slides were photographed with fluorescence microscope.
The remaining red blood cells were centrifuged to discard the supernatant, and 125 μL of water for injection was added to the remaining lower red blood cells to cause hemolysis. The fluorescence intensity of 100 μL of the supernatant obtained by centrifugation was measured using a microplate reader (MTP-800Lab, Corona Electric Co., Ltd.). The measurement conditions were an excitation light wavelength of […] and a measurement fluorescence wavelength of […].

## Nc1ncnc2c1ncn2[C@@H]1O[C@H](COP(=O)(O)OP(=O)(O)OP(=O)(O)O)[C@@H](O)[C@H]1O [ATP, adenosine triphosphate]
  uptake of fluorescently labeled glucose / fluorescence in red blood cells (in words): the degree of suppression of uptake was much lower than that of inosine
Test substance 1.25 mg/mL in PBS(−)
  Fluorescence intensity of fluorescently labeled glucose uptake into red blood cells: 163.3

## OC[C@H]1O[C@@H](n2cnc3c(O)ncnc32)[C@H](O)[C@@H]1O [Inosine, inosine]
  uptake of fluorescently labeled glucose / fluorescence in red blood cells (in words): fluorescence in red blood cells was hardly observed; also recorded: strong inhibitory effect on the uptake of glucose in red blood cells
Test substance 2 mg/mL in PBS(−)
  Fluorescence intensity of fluorescently labeled glucose uptake into red blood cells: 6.4

## [F-].[Na+] [Sodium fluoride, sodium fluoride]
  uptake of fluorescently labeled glucose / fluorescence in red blood cells (in words): the degree of suppression of uptake was much lower than that of inosine
Test substance 1.5 mg/mL in PBS(−)
  Fluorescence intensity of fluorescently labeled glucose uptake into red blood cells: 255.1
